Results on one compound are retold here after patent US11712446B2, “Methods of mobilizing marrow infiltrating lymphocytes and uses thereof” (GLYCOMIMETICS, INC., priority 2017, dated 2023).

Assay type in all cases: in vivo, BALB/c mice
In one assay the test system is CD8+ T cells. The assay is described as follows: Flow cytometric CD62L/CD44 phenotype of CD8+ T cells in peripheral blood and bone marrow of CT26 immune mice (MIL mobilization). Conditions: 12 hours after final dose. The protocol: (§1) Protocol for Detection and Mobilization of MILs in the CT-26 tumor model: GMI-1271 is a potent, small-molecule, glycomimetic antagonist of E-selectin. GMI-1359 is a potent, small-molecule glycomimetic dual antagonist, targeting E-selectin and CXCR4. The effects of inhibiting either E-selectin with GMI-1271 or E-selectin and CXCR4 with GMI-1359 on MIL mobilization was tested in BALB/c mice that had been induced to reject the syngeneic CT26 colon carcinoma via anti-CTLA-4 T cell checkpoint antibody.
Treatment with anti-CTLA-4 for all mice implanted with CT26.WT began on Day 3. All mice were dosed intraperitoneally on Days 3, 6, 10, 13, and 17. All mice were dosed according to individual body weight on the day of treatment (0.2 mg/20 g).
On Day 25, mice without tumors following CTLA-4 treatment were distributed into the four “Tumor Immune” treatment groups indicated in Table 1 such that the mean body weight within each group was within 10% of the overall mean.
(§2) Treatment for “Tumor Immune” groups 1-4 began on Day 25. The Vehicle was dosed intraperitoneally every 12 hours for 3 days (Days 25-27). GMI-1271 and GMI-1359 were dosed intraperitoneally at 40 mg/kg every 12 hours for 3 days (Days 25-27). G-CSF was dosed at 0.125 mg/kg subcutaneously every 12 hours for 3 days (Days 25-27).
A “Nonimmune” group 5 was populated with age-matched, naive non-tumor bearing mice.
(§3) At 12 hours after the final dose of test agents, all mice in groups 1-5 (treatment “Tumor Immune” groups 1-4 and control “Nonimmune” group 5) were euthanized for blood and bone marrow collection.
Flow cytometric analysis was used to determine CD62L and CD44 expression on CD8+ T cells in whole blood and bone marrow samples. Secondary analysis included AH-1 Dextramer analysis on the three tissue types and IFNγ production in pooled blood and bone marrow samples. Samples were acquired using a 4 laser, 14 color Attune NxT Flow Cytometer with autosampler. CD62L and CD44 events were gated on CDS+ T cells.

A further assay has as its system CD8+ MILs. The experiment in a line: IFNγ production by bone marrow CD8+ MILs following in vitro stimulation with irradiated CT-26 tumor cells or AH1. As to conditions: tumor immunized mice, 40 mg/kg IP every 12 hours for 3 days, FIG. 2. As to the method: as §1, §2, §3
(§4) Flow cytometric analysis was used to determine CD62L and CD44 expression on CD8+ T cells in whole blood and bone marrow samples. Secondary analysis included AH-1 Dextramer analysis on the three tissue types and IFNγ production in pooled blood and bone marrow samples. Samples were acquired using a 4 laser, 14 color Attune NxT Flow Cytometer with autosampler. […]

Assay [1] deals with CD8+ T-cells in peripheral blood. The experiment in a line: Percent of CD8+ lymphocytes in peripheral blood armed to produce IFNγ. As to conditions: CT26 immune mice; GMI compounds 40 mg/kg IP, G-CSF 0.125 mg/kg SC, every 12 hours for 3 days; 12 hours after final dose; FIG. 3. As to the method: as §1, §2, §3, §4

Turning to `CC[C@H]1C[C@@H](C(=O)NCCNC(=O)CCOCCOCCOCCOCCOCCOCCOCCOCCOCCOCCOCCOC)C[C@@H](O[C@@H]2O[C@H](CO)[C@H](O)[C@H](O[C@@H](CC3CCCCC3)C(=O)[O-])[C@H]2NC(C)=O)[C@@H]1O[C@@H]1O[C@@H](C)[C@@H](O)[C@@H](O)[C@@H]1O.[Na+]` [GMI-1271], in the assay on CD8+ T cells (40 mg/kg IP every 12 hours for 3 days, FIG. 1C), the “redistribution of effector memory (EM, CD62L-CD44+) CD8+ T cells” value is given as “not effected”. Besides, in the assay with CD8+ T cells (GMI compounds 40 mg/kg IP, G-CSF 0.125 mg/kg SC, every 12 hours for 3 days, FIG. 1A), the “mobilization of naïve (CD62L+CD44−) CD8+ T cells into the peripheral blood” value is reported as “mobilized”. In the assay on CD8+ T cells (GMI compounds 40 mg/kg IP, G-CSF 0.125 mg/kg SC, every 12 hours for 3 days, FIG. 1B), the “mobilization of central memory (CM, CD62L+CD44+) CD8+ T cells into the peripheral blood” value is “mobilized”. Moreover, the “functional activity of bone marrow CD8+ MILs (IFNγ production) after in vitro stimulation” value with CD8+ MILs was “primed to respond to both AH1 and whole tumor cells”. The “percentage of CD8+ T-cells in peripheral blood primed to produce IFNγ” value in assay [1] is listed as “markedly increased”.
